Measured values reported in publication PMC9898036, “VIP152 is a selective CDK9 inhibitor with pre-clinical in vitro and in vivo efficacy in chronic lymphocytic leukemia” (Leukemia, 2022).
Read-outs that look alike come from different tables or passages of the source.

Experiments:
Assay in all cases: DiscoverX KINOMEscan kinase profiling (468 assays)
Type in all cases: binding
human kinome [1] = target: human kinome (Homo sapiens, UniProt P24941); details: CDK2; 100 nM; read-out: Percent Control
Procedure, shortened: (§1)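 DNA-tagged kinases competed for immobilized biotinylated ligands on streptavidin magnetic beads, with bound kinase quantified by qPCR. VIP152 in DMSO was tested against a DMSO control.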

human kinome [2] = target: human kinome (Homo sapiens, UniProt Q8IYT8); details: kinase ULK2 (Entrez ULK2); compound concentration 1000 nM; read-out: Percent Control
Procedure, shortened: as §1

human kinome [3] = target: human kinome (Homo sapiens, UniProt P49761); details: CLK3; 100 nM; read-out: Percent Control
Procedure, shortened: as §1

human kinome [4] = target: human kinome (Homo sapiens, UniProt O15075); details: DCAMKL1 (Entrez DCLK1); 100 nM; read-out: Percent Control
Procedure, shortened: as §1

human kinome [5] = target: human kinome (Homo sapiens, UniProt P42338); details: read-out: Percent Control
Procedure, shortened: as §1

human kinome [6] = target: human kinome (Homo sapiens, UniProt Q02750); details: MEK1 (Entrez MAP2K1); 100 nM; read-out: Percent Control
Procedure, shortened: as §1

human kinome [7] = target: human kinome (Homo sapiens, UniProt P36888, D835Y); details: FLT3(D835Y); 100 nM; read-out: Percent Control
Procedure, shortened: as §1

human kinome [8] = target: human kinome (Homo sapiens, UniProt Q8WTQ7); details: GRK7; 100 nM; read-out: Percent Control
Procedure, shortened: as §1

human kinome [9] = target: human kinome (Homo sapiens, UniProt P36888, D835H); details: FLT3(D835H); 100 nM; read-out: Percent Control
Procedure, shortened: as §1

human kinome [10] = target: human kinome (Homo sapiens, UniProt P48729); details: CSNK1A1; 100 nM; read-out: Percent Control
Procedure, shortened: as §1

human kinome [11] = target: human kinome (Homo sapiens, UniProt O14920); details: IKK-beta (Entrez IKBKB); 100 nM; read-out: Percent Control
Procedure, shortened: as §1

human kinome [12] = target: human kinome (Homo sapiens, UniProt P00533, DEL746-750); details: EGFR(E746-A750del); 100 nM; read-out: Percent Control
Procedure, shortened: as §1

human kinome [13] = target: human kinome (Homo sapiens, UniProt Q9BXA7); details: kinase TSSK1B (Entrez TSSK1B); compound concentration 1000 nM; read-out: Percent Control
Procedure, shortened: as §1

human kinome [14] = target: human kinome (Homo sapiens, UniProt P08581, M1250T); details: MET(M1250T); 100 nM; read-out: Percent Control
Procedure, shortened: as §1

human kinome [15] = target: human kinome (Homo sapiens, UniProt P08069); details: IGF1R; 100 nM; read-out: Percent Control
Procedure, shortened: as §1

human kinome [16] = target: human kinome (Homo sapiens, UniProt Q6XUX3); details: kinase RIPK5 (Entrez DSTYK); compound concentration 1000 nM; read-out: Percent Control
Procedure, shortened: as §1

human kinome [17] = target: human kinome (Homo sapiens, UniProt P42336, M1043I); details: read-out: Percent Control
Procedure, shortened: as §1

human kinome [18] = target: human kinome (Homo sapiens, UniProt Q04759); details: read-out: Percent Control
Procedure, shortened: as §1

human kinome [19] = target: human kinome (Homo sapiens, UniProt O75716); details: kinase STK16 (Entrez STK16); compound concentration 1000 nM; read-out: Percent Control
Procedure, shortened: as §1

human kinome [20] = target: human kinome (Homo sapiens, UniProt Q9BX84); details: kinase TRPM6 (Entrez TRPM6); compound concentration 1000 nM; read-out: Percent Control
Procedure, shortened: as §1

human kinome [21] = target: human kinome (Homo sapiens, UniProt O75582); details: compound concentration 1000 nM, read-out: Percent Control
Procedure, shortened: as §1

human kinome [22] = target: human kinome (Homo sapiens, UniProt P52564); details: MEK6 (Entrez MAP2K6); 100 nM; read-out: Percent Control
Procedure, shortened: as §1

human kinome [23] = target: human kinome (Homo sapiens, UniProt P53350); details: read-out: Percent Control
Procedure, shortened: as §1

human kinome [24] = target: human kinome (Homo sapiens, UniProt Q07002); details: read-out: Percent Control
Procedure, shortened: as §1

human kinome [25] = target: human kinome (Homo sapiens, UniProt P54760); details: EPHB4; 100 nM; read-out: Percent Control
Procedure, shortened: as §1

human kinome [26] = target: human kinome (Homo sapiens, UniProt P08581, Y1235D); details: MET(Y1235D); 100 nM; read-out: Percent Control
Procedure, shortened: as §1

human kinome [27] = target: human kinome (Homo sapiens, UniProt O60285); details: ARK5 (Entrez NUAK1); 100 nM; read-out: Percent Control
Procedure, shortened: as §1

human kinome [28] = target: human kinome (Homo sapiens, UniProt Q16620); details: kinase TRKB (Entrez NTRK2); compound concentration 1000 nM; read-out: Percent Control
Procedure, shortened: as §1

human kinome [29] = target: human kinome (Homo sapiens, UniProt Q9HCP0); details: CSNK1G1; 100 nM; read-out: Percent Control
Procedure, shortened: as §1

human kinome (Homo sapiens, UniProt Q07002), sequence (Q07002 whole entry): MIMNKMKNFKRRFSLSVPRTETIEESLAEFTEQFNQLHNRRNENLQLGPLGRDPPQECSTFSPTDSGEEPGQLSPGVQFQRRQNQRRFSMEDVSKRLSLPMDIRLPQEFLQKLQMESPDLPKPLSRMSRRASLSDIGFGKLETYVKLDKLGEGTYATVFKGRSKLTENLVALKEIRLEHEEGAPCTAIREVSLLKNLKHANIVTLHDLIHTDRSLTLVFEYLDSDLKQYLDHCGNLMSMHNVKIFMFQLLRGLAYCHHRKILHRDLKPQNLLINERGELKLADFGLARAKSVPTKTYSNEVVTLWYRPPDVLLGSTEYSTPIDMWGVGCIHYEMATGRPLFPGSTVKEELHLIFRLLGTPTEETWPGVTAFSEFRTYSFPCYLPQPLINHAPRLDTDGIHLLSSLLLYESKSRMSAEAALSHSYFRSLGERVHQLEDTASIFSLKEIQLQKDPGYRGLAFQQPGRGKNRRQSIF
human kinome (Homo sapiens, UniProt Q04759), sequence (Q04759 whole entry): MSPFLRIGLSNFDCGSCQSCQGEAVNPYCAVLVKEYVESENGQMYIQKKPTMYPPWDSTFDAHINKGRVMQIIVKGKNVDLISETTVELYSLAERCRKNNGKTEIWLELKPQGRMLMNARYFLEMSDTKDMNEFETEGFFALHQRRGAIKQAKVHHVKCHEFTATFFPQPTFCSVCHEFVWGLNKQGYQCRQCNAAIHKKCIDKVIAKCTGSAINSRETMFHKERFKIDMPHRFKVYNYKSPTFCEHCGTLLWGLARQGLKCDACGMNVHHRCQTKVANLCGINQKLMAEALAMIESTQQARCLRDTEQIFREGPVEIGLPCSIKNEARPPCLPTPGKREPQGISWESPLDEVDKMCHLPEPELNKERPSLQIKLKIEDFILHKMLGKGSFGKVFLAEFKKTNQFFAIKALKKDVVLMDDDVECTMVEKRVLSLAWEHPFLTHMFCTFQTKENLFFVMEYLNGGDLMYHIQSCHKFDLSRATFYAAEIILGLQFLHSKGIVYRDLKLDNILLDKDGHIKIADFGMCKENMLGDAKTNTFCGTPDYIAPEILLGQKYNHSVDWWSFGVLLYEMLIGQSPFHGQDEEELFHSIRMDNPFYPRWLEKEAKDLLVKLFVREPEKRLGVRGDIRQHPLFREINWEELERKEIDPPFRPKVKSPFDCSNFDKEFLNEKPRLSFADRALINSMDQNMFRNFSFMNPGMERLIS
human kinome (Homo sapiens, UniProt P42336, M1043I), sequence (P42336 whole entry M1043I): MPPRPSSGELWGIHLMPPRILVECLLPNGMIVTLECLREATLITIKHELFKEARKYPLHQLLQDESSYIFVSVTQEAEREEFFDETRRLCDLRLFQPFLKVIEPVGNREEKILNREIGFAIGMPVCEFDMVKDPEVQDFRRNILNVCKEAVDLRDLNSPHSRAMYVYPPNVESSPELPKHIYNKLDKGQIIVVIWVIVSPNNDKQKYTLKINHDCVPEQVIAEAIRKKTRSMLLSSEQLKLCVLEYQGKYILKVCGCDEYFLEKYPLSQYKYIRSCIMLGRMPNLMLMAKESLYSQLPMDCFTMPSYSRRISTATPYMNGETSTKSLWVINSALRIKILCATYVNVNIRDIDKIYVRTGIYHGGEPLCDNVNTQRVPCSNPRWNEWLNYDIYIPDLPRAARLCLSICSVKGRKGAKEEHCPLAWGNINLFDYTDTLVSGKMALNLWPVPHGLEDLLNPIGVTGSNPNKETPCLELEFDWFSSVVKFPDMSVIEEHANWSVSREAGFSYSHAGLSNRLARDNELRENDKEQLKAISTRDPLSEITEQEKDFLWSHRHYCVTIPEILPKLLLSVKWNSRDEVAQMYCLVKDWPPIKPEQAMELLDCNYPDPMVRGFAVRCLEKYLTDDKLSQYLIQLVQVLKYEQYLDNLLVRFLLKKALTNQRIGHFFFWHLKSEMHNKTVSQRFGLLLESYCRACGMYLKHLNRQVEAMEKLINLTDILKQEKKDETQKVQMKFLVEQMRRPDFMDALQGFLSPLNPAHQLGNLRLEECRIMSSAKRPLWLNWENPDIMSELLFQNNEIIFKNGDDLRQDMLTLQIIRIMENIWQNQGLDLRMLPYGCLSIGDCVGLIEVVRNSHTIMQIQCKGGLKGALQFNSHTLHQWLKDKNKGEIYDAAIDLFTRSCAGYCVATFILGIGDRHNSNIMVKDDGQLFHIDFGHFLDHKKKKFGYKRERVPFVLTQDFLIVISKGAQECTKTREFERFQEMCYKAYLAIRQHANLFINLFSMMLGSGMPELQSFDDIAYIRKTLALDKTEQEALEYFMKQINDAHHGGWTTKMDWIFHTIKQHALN
human kinome (Homo sapiens, UniProt O75582), sequence (O75582 whole entry): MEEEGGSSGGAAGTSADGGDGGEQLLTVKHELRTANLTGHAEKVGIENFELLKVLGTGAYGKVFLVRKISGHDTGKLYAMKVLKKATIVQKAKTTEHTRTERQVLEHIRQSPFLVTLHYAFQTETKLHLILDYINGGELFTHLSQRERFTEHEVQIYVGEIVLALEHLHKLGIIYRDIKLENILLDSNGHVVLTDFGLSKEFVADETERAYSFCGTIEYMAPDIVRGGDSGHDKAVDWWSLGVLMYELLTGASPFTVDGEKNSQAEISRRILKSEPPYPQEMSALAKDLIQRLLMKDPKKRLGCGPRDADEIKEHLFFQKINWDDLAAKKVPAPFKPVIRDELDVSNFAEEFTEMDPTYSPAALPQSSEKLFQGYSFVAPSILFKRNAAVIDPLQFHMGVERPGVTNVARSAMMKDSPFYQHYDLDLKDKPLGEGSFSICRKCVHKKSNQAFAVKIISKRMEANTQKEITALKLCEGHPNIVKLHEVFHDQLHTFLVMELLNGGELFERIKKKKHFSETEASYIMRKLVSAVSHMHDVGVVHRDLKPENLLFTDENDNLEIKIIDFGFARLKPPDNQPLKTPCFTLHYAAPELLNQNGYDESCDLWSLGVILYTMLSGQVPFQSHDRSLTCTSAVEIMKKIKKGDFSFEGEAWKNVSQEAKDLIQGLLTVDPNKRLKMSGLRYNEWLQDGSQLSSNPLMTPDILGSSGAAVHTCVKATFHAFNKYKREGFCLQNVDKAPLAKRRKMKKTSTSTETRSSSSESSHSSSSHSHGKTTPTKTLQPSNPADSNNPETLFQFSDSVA
human kinome (Homo sapiens, UniProt P53350), sequence (P53350 whole entry): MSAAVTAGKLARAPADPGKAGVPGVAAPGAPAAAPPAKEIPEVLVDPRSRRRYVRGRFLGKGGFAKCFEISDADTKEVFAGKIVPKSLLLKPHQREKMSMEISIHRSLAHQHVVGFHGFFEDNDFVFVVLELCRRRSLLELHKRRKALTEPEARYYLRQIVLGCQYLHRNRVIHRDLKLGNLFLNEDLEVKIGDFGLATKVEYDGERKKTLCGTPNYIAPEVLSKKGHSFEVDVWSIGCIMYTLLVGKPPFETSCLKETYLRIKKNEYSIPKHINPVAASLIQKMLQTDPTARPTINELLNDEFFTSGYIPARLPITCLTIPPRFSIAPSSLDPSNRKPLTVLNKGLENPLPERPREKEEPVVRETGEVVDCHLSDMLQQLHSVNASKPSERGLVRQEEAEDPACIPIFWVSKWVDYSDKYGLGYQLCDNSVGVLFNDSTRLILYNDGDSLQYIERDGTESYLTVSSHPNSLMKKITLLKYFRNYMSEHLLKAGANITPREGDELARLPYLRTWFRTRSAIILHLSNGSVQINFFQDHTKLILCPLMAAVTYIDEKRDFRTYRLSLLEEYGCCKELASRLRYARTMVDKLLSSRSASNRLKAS
human kinome (Homo sapiens, UniProt P42338), sequence (P42338 whole entry): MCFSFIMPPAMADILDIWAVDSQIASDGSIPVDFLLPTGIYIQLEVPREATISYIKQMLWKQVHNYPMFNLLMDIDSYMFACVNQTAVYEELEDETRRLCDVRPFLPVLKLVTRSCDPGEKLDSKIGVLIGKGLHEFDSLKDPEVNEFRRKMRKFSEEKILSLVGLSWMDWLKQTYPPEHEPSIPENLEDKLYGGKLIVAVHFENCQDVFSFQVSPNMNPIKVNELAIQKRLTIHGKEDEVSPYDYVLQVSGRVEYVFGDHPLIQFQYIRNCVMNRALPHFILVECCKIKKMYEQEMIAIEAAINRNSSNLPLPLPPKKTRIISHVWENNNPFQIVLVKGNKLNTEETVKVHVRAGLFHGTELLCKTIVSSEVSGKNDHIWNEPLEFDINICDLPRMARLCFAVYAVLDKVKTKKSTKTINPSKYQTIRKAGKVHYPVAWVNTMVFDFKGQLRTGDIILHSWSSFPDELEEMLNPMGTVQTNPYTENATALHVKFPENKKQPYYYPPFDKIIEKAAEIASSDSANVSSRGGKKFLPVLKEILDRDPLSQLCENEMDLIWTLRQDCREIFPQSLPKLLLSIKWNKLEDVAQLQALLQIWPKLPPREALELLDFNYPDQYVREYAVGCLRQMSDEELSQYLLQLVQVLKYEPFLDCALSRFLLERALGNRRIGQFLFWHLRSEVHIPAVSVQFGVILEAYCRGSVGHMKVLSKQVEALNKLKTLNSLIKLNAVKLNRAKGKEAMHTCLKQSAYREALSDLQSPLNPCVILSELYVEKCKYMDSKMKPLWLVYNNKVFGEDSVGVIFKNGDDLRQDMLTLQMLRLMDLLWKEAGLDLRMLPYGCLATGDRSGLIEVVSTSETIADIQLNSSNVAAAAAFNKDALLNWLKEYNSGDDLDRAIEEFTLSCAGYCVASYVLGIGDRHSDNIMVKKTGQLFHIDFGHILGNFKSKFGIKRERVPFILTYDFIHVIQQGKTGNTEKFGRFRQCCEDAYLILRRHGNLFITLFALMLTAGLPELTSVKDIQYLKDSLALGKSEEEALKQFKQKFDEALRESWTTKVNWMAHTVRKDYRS
human kinome (Homo sapiens, UniProt O75716), sequence (O75716 whole entry): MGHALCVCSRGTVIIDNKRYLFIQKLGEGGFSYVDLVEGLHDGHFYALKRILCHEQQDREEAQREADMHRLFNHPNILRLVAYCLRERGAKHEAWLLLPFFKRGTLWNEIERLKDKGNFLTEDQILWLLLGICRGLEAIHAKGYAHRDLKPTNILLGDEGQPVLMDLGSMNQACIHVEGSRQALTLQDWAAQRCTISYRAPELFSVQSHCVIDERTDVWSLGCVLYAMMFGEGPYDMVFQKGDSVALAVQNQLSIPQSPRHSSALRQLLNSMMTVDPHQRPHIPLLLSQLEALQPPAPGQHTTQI

`COc1cc(F)ccc1-c1cc(Nc2cc(CS(C)(=N)=O)ccn2)ncc1F` (centres unmarked) [VIP152] was tested, and the remaining binding at 0.1 µM (human kinome [1]) was 100%, the remaining binding at 1 µM (human kinome [2]) was 97% and the remaining binding at 0.1 µM (human kinome [3]) was 93%. The remaining binding at 0.1 µM (human kinome [4]) was 91%, the remaining binding at 0.1 µM (human kinome [5]; PIK3CB, 100 nM) was 100% and the remaining binding at 1 µM (human kinome [5]; kinase PIK3CB (Entrez PIK3CB), compound concentration 1000 nM) was 100%. For the same molecule, the remaining binding at 0.1 µM (human kinome [6]) was 100%, the remaining binding at 0.1 µM (human kinome [7]) was 100% and the remaining binding at 0.1 µM (human kinome [8]) was 100%. For the same molecule, the remaining binding at 0.1 µM (human kinome [9]) was 100%, the remaining binding at 0.1 µM (human kinome [10]) was 79% and the remaining binding at 0.1 µM (human kinome [11]) was 100%. It also gave a remaining binding at 0.1 µM (human kinome [12]) of 100%, a remaining binding at 1 µM (human kinome [13]) of 92% and a remaining binding at 0.1 µM (human kinome [14]) of 92%. The remaining binding at 0.1 µM (human kinome [15]) was 79%, the remaining binding at 1 µM (human kinome [16]) was 42% and the remaining binding at 0.1 µM (human kinome [17]; PIK3CA(M1043I), 100 nM) was 100%. It also gave a remaining binding at 1 µM (human kinome [17]; kinase PIK3CA(M1043I) (Entrez PIK3CA), compound concentration 1000 nM) of 84%, a remaining binding at 0.1 µM (human kinome [18]; PRKCQ, 100 nM) of 100% and a remaining binding at 1 µM (human kinome [18]; kinase PRKCQ (Entrez PRKCQ), compound concentration 1000 nM) of 62%. For the same molecule, the remaining binding at 1 µM (human kinome [19]) was 44%, the remaining binding at 1 µM (human kinome [20]) was 96% and the remaining binding at 1 µM (human kinome [21]; kinase RPS6KA5(Kin.Dom.1-N-terminal) (Entrez RPS6KA5)) was 100%. The remaining binding at 1 µM (human kinome [21]; kinase RPS6KA5(Kin.Dom.2-C-terminal) (Entrez RPS6KA5)) was 100%, the remaining binding at 0.1 µM (human kinome [22]) was 100% and the remaining binding at 0.1 µM (human kinome [23]; PLK1, 100 nM) was 100%. The remaining binding at 1 µM (human kinome [23]; kinase PLK1 (Entrez PLK1), compound concentration 1000 nM) was 89%, the remaining binding at 0.1 µM (human kinome [24]; PCTK3 (Entrez CDK18), 100 nM) was 100% and the remaining binding at 1 µM (human kinome [24]; kinase PCTK3 (Entrez CDK18), compound concentration 1000 nM) was 84%. The remaining binding at 0.1 µM (human kinome [25]) was 100%, the remaining binding at 0.1 µM (human kinome [26]) was 82% and the remaining binding at 0.1 µM (human kinome [27]) was 100%. It also gave a remaining binding at 1 µM (human kinome [28]) of 30% and a remaining binding at 0.1 µM (human kinome [29]) of 100%.
